One compound from patent publication US8580787B2, “Compositions and methods for reducing activation of alpha-1 receptors” (Eye Therapies LLC, priority 2008, dated 2013) can be followed below.

The conditions of assay [1]: brimonidine 0.01-[…] left eye vs tetrahydrozoline 0.05%, oxymetazoline […], naphazoline […] right eye; baseline redness 4/4. The text has this: FIG. 4A is a baseline visual appearance of two eyes of a patient with an ocular condition.
In an average clinical situation, baseline redness is at 1-1.5/4.

The nature of assay [2]: Example 5: chronic red eyes, patient satisfaction assessment, eld brimonidine vs Naphcon-A. It is filed as in vivo, human. The following applies: brimonidine at […], drops twice a day for three to five weeks, seven patients, all patients. The protocol: The treatment was through drops twice a day for three to five weeks. At the end, patient satisfaction assessment was conducted.

Assay [3] can be described thus: FIGS. 5A-C: induction and reversal of rebound hyperemia in a patient's eyes. In kind it is in vivo, human. The note with it: brimonidine at […], right eye, after VISINE Original. An excerpt:
FIG. 5A is a baseline visual appearance of two eyes of a patient with an ocular condition.

The conditions of assay [4]: 0.03% brimonidine nasal spray, 0.9% saline vehicle, n of 1.
Assay [5] is described as follows: Example 2: Lasik prophylaxis, postoperative hyperemia, hemorrhage and flap dislocation. The following applies: brimonidine 0.02%.

As for `Brc1c(N=C2NCCN2)ccc2nccnc12.O=C(O)C(O)C(O)C(=O)O` [brimonidine, 5-bromo-6-(2-imidazolidinylideneamino)quinoxaline L-tartrate], in assay [1], the “scleral whitening brightening effects” value is “significant scleral whitening brightening effects”. The patient-reported redness result in assay [2] is given as “reduced redness”. Besides, the “effect on VISINE Original induced rebound hyperemia” value in assay [3] is on record as “reversing the VISINE Original® induced rebound hyperemia”. Further, the “duration of complete relief of moderate nasal congestion per application” value in assay [4] lay in the range of 3 to 5 h. Besides, the “cosmetic appearance vs. no vasoconstrictor and vs. Naphcon-A” value in assay [5] (from day 1 after Lasik) is on record as “much improved”. In assay [5] (over 500 eyes), the “hyperemia in the majority of the 1+ or less hyperemic group” value is on record as “no or only trace hyperemia”.
